Tests used:
Capan-1 (K-Ras G12V) = test: CellTiter-Glo cell viability assay, 5-day treatment; format: cell-based; conditions: Homo sapiens, CAPAN-1, 120 h, 5-day treatment; read-out: Capan-1 Cell Viability assay data (K-Ras G12V, IC50)
Procedure, shortened: (§1)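 Compounds were dispensed directly onto seeded cells and incubated for 5 days, then plates were equilibrated to room temperature for about 30 minutes before luminescence reading. Signals were expressed as percent of the mean DMSO control and fitted with a four-parameter logistic curve.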

NCI-H358 (K-Ras G12C) = test: as above; format: cell-based; conditions: Homo sapiens, NCI-H358, 120 h, 5-day treatment; read-out: H358 Cell Viability assay data (K-Ras G12C, IC50)
Procedure, shortened: as §1

KRAS G12C = KRAS G12C (Homo sapiens, UniProt P01116+P62937, G12C); test: Disruption of BRAF RBD interaction with Ras (FRET / MOA assay, with Cyclophilin A); format: biochemical; conditions: read-out: KRAS G12C FRET data, IC50
Chain of KRAS G12C (P01116 1-169 isoform P01116-2 G12C): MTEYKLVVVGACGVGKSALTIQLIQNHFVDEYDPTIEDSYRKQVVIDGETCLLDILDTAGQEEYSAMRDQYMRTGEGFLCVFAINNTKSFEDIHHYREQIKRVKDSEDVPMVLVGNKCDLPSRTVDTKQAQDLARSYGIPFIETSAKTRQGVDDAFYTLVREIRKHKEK
Chain of KRAS G12C (P62937 whole entry): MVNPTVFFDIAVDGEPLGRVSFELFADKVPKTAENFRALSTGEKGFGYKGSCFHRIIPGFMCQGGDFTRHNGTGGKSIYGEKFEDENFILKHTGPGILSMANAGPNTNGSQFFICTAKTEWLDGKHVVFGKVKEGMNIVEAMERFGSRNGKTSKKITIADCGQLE
Procedure, shortened: (§2)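 IC50 values reflect loss of K-Ras binding to BRAF RBD, read as a lowered TR-FRET ratio compared with DMSO, driven by compound-mediated K-Ras:Cyclophilin A complex formation. Compound top dose 30 μM final, 3-fold steps, 3 h incubation at 25 °C before a 1.5 h antibody step.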

KRAS G12D = KRAS G12D (Homo sapiens, UniProt P01116+P62937, G12D); test: as above; format: biochemical; conditions: read-out: KRAS G12D FRET data, IC50
Chain of KRAS G12D (P01116 1-169 isoform P01116-2 G12D limits assumed): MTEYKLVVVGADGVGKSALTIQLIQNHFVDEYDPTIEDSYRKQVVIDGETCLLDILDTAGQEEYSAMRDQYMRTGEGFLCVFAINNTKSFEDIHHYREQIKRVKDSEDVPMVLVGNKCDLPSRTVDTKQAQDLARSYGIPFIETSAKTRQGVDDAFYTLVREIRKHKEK
Chain of KRAS G12D (P62937 whole entry): as the sequence (P62937 whole entry) above
Procedure, shortened: as §2

KRAS G12S = KRAS G12S (Homo sapiens, UniProt P01116+P62937, G12S); test: as above; format: biochemical; conditions: read-out: KRAS G12S FRET data, IC50
Chain of KRAS G12S (P01116 1-169 isoform P01116-2 G12S limits assumed): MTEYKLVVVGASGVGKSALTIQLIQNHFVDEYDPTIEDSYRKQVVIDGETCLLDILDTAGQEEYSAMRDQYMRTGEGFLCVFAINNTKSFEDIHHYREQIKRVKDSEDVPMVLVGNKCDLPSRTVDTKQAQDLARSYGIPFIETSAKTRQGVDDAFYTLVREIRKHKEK
Chain of KRAS G12S (P62937 whole entry): as the sequence (P62937 whole entry) above
Procedure, shortened: as §2

KRAS G12V = KRAS G12V (Homo sapiens, UniProt P01116+P62937, G12V); test: as above; format: biochemical; conditions: KRAS G12V; read-out: KRAS G12V FRET data IC50
Chain of KRAS G12V (P01116 1-169 isoform P01116-2 G12V limits assumed): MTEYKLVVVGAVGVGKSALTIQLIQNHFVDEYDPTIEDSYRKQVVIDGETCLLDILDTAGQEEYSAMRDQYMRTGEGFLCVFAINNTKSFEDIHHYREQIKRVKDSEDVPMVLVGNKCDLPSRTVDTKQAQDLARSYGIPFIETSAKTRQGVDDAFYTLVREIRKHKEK
Chain of KRAS G12V (P62937 whole entry): as the sequence (P62937 whole entry) above
Procedure, shortened: as §2

KRAS G13C = KRAS G13C (Homo sapiens, UniProt P01116+P62937, G13C); test: as above; format: biochemical; conditions: read-out: KRAS G13C FRET data, IC50
Chain of KRAS G13C (P01116 1-169 isoform P01116-2 G13C): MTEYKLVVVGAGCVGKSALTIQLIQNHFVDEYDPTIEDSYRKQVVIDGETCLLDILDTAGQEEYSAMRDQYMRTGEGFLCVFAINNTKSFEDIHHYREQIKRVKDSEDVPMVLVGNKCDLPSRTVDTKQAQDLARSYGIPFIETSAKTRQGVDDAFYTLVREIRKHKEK
Chain of KRAS G13C (P62937 whole entry): as the sequence (P62937 whole entry) above
Procedure, shortened: as §2

KRAS G13D = KRAS G13D (Homo sapiens, UniProt P01116+P62937, G13D); test: as above; format: biochemical; conditions: KRAS G13D; read-out: KRAS G13D FRET data IC50
Chain of KRAS G13D (P01116 1-169 isoform P01116-2 G13D limits assumed): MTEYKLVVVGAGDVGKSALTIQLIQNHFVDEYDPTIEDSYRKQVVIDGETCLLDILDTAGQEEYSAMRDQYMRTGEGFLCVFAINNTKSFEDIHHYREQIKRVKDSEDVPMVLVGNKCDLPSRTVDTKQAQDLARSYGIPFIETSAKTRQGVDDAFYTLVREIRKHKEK
Chain of KRAS G13D (P62937 whole entry): as the sequence (P62937 whole entry) above
Procedure, shortened: as §2

KRAS WT = KRAS WT (Homo sapiens, UniProt P01116+P62937); test: as above; format: biochemical; conditions: KRAS WT; read-out: KRAS WT FRET data IC50
Chain of KRAS WT (P01116 1-169 isoform P01116-2 limits assumed): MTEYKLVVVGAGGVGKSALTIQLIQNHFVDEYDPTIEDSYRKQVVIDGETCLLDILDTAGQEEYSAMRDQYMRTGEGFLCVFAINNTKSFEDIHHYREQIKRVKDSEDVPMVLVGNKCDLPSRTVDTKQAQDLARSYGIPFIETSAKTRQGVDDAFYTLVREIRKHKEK
Chain of KRAS WT (P62937 whole entry): as the sequence (P62937 whole entry) above
Procedure, shortened: as §2

NRAS G12C = NRAS G12C (Homo sapiens, UniProt P01111+P62937, G12C); test: as above; format: biochemical; conditions: NRAS G12C; read-out: NRAS G12C FRET data IC50
Chain of NRAS G12C (P01111 whole entry G12C): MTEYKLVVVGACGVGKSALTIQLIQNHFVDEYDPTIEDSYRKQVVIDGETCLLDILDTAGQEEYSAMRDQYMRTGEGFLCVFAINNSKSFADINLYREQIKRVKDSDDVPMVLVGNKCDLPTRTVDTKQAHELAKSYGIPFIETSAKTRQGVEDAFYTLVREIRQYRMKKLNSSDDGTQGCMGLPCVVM
Chain of NRAS G12C (P62937 whole entry): as the sequence (P62937 whole entry) above

CCn1c(-c2cnccc2COC)c2c3cc(ccc31)-c1cc(O)cc(c1)C[C@H](NC(=O)[C@H](C(C)C)N(C)C(=O)[C@@H]1CCOC1)C(=O)N1CCC[C@H](N1)C(=O)OCC(C)(C)C2 [Example A94]
IC50 (Capan-1 (K-Ras G12V)): 100 to 1000 nM | IC50 (NCI-H358 (K-Ras G12C)): 100 to 1000 nM | IC50 (KRAS G12C): 100 to 1000 nM | IC50 (KRAS G12D): 1000 to 10000 nM | IC50 (KRAS G12S): 100 to 1000 nM | IC50 (KRAS G12V): 100 to 1000 nM | IC50 (KRAS G13C): 100 to 1000 nM | IC50 (KRAS G13D): 100 to 1000 nM | IC50 (KRAS WT): 100 to 1000 nM | IC50 (NRAS G12C): 100 to 1000 nM

CCn1c(-c2cccnc2[C@H](C)OC)c2c3cc(ccc31)-c1cc(O)cc(c1)C[C@H](NC(=O)[C@H](C(C)C)N(C)C(=O)[C@H]1CCN(CCO)C1)C(=O)N1CCC[C@H](N1)C(=O)OCC(C)(C)C2 [Example A111]
IC50 (Capan-1 (K-Ras G12V)): 1000 to 10000 nM | IC50 (NCI-H358 (K-Ras G12C)): 1000 to 10000 nM | IC50 (KRAS G12C): 10 to 100 nM | IC50 (KRAS G12D): 10 to 100 nM | IC50 (KRAS G12S): 10 to 100 nM | IC50 (KRAS G12V): 1000 to 10000 nM | IC50 (KRAS G13C): 10 to 100 nM | IC50 (KRAS G13D): 10 to 100 nM | IC50 (KRAS WT): 10 to 100 nM | IC50 (NRAS G12C): 100 to 1000 nM

CCn1c(-c2cccnc2[C@H](C)OC)c2c3cc(ccc31)-c1cc(O)cc(c1)C[C@H](NC(=O)[C@H](C(C)C)N(C)C(=O)C1NCCC13CC3)C(=O)N1CCC[C@H](N1)C(=O)OCC(C)(C)C2 (stereo partly drawn) [Example A228]
IC50 (Capan-1 (K-Ras G12V)): 100 to 1000 nM | IC50 (NCI-H358 (K-Ras G12C)): 100 to 1000 nM | IC50 (KRAS G12C): 10 to 100 nM | IC50 (KRAS G12D): 10 to 100 nM | IC50 (KRAS G12S): 10 to 100 nM | IC50 (KRAS G12V): 100 to 1000 nM | IC50 (KRAS G13C): 10 to 100 nM | IC50 (KRAS G13D): 10 to 100 nM | IC50 (KRAS WT): 10 to 100 nM | IC50 (NRAS G12C): 10 to 100 nM

CCn1c(-c2cccnc2[C@H](C)OC)c2c3cc(ccc31)-c1cc(O)cc(c1)C[C@H](NC(=O)[C@H](C(C)C)N(C)C(=O)[C@H]1CCN(C(=O)[C@]3(C)CCCN3C)C1)C(=O)N1CCC[C@H](N1)C(=O)OCC(C)(C)C2 [Example A342]
IC50 (Capan-1 (K-Ras G12V)): 100 to 1000 nM | IC50 (NCI-H358 (K-Ras G12C)): 10 to 100 nM | IC50 (NRAS G12C): 10 to 100 nM

CCn1c(-c2cccnc2[C@H](C)OC)c2c3cc(ccc31)-c1cc(O)cc(c1)C[C@H](NC(=O)[C@H](C(C)C)N(C)C(=O)[C@H]1C[C@H]1F)C(=O)N1CCC[C@H](N1)C(=O)OCC(C)(C)C2 [Example A162]
IC50 (Capan-1 (K-Ras G12V)): 10 to 100 nM | IC50 (NCI-H358 (K-Ras G12C)): 10 to 100 nM | IC50 (KRAS G12V): 10 to 100 nM

CCn1c(-c2cccnc2[C@H](C)OC)c2c3cc(ccc31)-c1cc(O)cc(c1)C[C@H](NS(=O)(=O)CCN(C)C)C(=O)N1CCC[C@H](N1)C(=O)OCC(C)(C)C2 (racemic) [Example A190]
IC50 (Capan-1 (K-Ras G12V)): > 10000 nM | IC50 (KRAS G12C): > 10000 nM | IC50 (KRAS G12D): > 10000 nM | IC50 (KRAS G12S): > 10000 nM | IC50 (KRAS G12V): > 10000 nM | IC50 (KRAS G13C): > 10000 nM | IC50 (KRAS G13D): > 10000 nM | IC50 (KRAS WT): > 10000 nM | IC50 (NRAS G12C): > 10000 nM

CCn1c(-c2cccnc2[C@H](C)OC)c2c3cc(ccc31)-c1cc(O)cc(c1)C[C@H](NC(=O)[C@@H]1C[C@H]1C)C(=O)N1CCC[C@H](N1)C(=O)OCC(C)(C)C2 [Example A183]
IC50 (Capan-1 (K-Ras G12V)): 1000 to 10000 nM | IC50 (KRAS G12C): 100 to 1000 nM | IC50 (KRAS G12D): > 10000 nM | IC50 (KRAS G12S): 1000 to 10000 nM | IC50 (KRAS G12V): 1000 to 10000 nM | IC50 (KRAS G13C): 100 to 1000 nM | IC50 (KRAS G13D): 1000 to 10000 nM | IC50 (KRAS WT): 1000 to 10000 nM | IC50 (NRAS G12C): 1000 to 10000 nM

CCn1c(-c2cccnc2[C@H](C)OC)c2c3cc(ccc31)-c1cc(O)cc(c1)C[C@H](NC(=O)[C@@H](NC(C)=O)C(C)(C)OC)C(=O)N1CCC[C@H](N1)C(=O)OCC(C)(C)C2 (racemic) [Example A172]
IC50 (Capan-1 (K-Ras G12V)): > 10000 nM | IC50 (KRAS G12C): > 10000 nM | IC50 (KRAS G12D): > 10000 nM | IC50 (KRAS G12S): > 10000 nM | IC50 (KRAS G12V): > 10000 nM | IC50 (KRAS G13C): 1000 to 10000 nM | IC50 (KRAS G13D): > 10000 nM | IC50 (KRAS WT): > 10000 nM | IC50 (NRAS G12C): > 10000 nM
